Data published in patent US6476199B1, “Reagents for lysergic acid diethylamide immunoassay” (priority 1996, dated 2002).

Experiments:
[1] = system: LSD antibodies; details: prior-art antibodies, Van Vunakis 1971; cited from earlier work
[2] = system: anti-LSD antibody G648; experiment: ELISA microtiter plate assay, plate coated with LSD-BSA label-conjugate 14, antiserum G648; type: binding, goats; details: for G648(OD): conjugate 14 coating, 405 nm, FIG. 1
Protocol: (§1) The novel reagents were tested in an ELISA immunoassay as described in Example 27. The N-indole derived LSD-BSA label-conjugate 14 containing the biphenyl linker was used to compete against known concentrations of LSD for binding to the anti-LSD antibodies, G648 and G651, raised against the LSD immunogen 8.

[3] = system: anti-LSD antibody G648; experiment: ELISA microtiter plate assay, plate coated with LSD-BSA label-conjugate 21, antiserum G648; details: conjugate 21 coating, 405 nm, FIG. 3
[4] = system: anti-LSD antibody G651; experiment: ELISA microtiter plate assay, plate coated with LSD-BSA label-conjugate 14, antiserum G651; type: binding, goats; details: for G651(OD): conjugate 14 coating, 405 nm
Protocol: as §1
FIG. 2 provides the curve generated from an ELISA microtiter plate assay, as described in Example 27, using nor-LSD as the standard.

[5] = light; pH above 7 epimerization at C-8 to iso-LSD; prolonged light oxidation at C-9; cited from earlier work
[6] = system: anti-LSD antibody G651; experiment: ELISA microtiter plate assay, plate coated with LSD-BSA label-conjugate 21, antiserum G651; details: conjugate 21 coating, 405 nm, FIG. 3

For CC[C@@H](CO)NC(=O)[C@@H]1C=C2c3cccc4c3c(cn4C)C[C@H]2N(C)C1 [methysergide], the “competition for binding to the LSD antibodies (cross-reactivity)” value (shortened to “competition for binding”) [1] is listed as “compete for binding”.

In the case of CCN(CC)C(=O)[C@@H]1C=C2c3cccc4[nH]cc(c34)C[C@H]2N(C)C1 [LSD, D-lysergic acid diethyl amide], the “G648(OD)” value ([2]; 0.5 ng/mL free LSD) is reported as 0.8 OD, the “G648(OD)” value ([2]; 1 ng/mL free LSD) is reported as 0.33 OD and the “G648(OD)” value ([2]; 5 ng/mL free LSD) is reported as 0.25 OD. The “G648(OD)” value ([3]; 0.5 ng/mL free LSD) was 0.52 OD, the “G648(OD)” value ([3]; 1 ng/mL free LSD) was 0.37 OD and the “G648(OD)” value ([3]; 5 ng/mL free LSD) was 0.17 OD. The “G651(OD)” value ([4]; 0.5 ng/mL free LSD, FIG. 1) was 1.05 OD, the “G651(OD)” value ([4]; 1 ng/mL free LSD, FIG. 1) was 0.75 OD and the “G651(OD)” value ([4]; 5 ng/mL free LSD, FIG. 1) was 0.39 OD. The “G651(OD)” value ([4]; 5 ng/mL free drug, FIG. 2) was 0.63 OD, the stability [5] was “sensitive to light and alkaline pH” and the “G651(OD)” value ([6]; 0.5 ng/mL free LSD) was 0.5 OD. For the same compound, the “G651(OD)” value ([6]; 1 ng/mL free LSD) was 0.33 OD and the “G651(OD)” value ([6]; 5 ng/mL free LSD) was 0.19 OD.

For CCN(CC)C(=O)[C@@H]1C=C2c3cccc4[nH]cc(c34)C[C@H]2NC1 [Nor-LSD, 8β-9,10-didehydro-N,N-diethylergoline-8-carboxamide], the “binding of antibody G648 raised against immunogen 8” value ([2]; in words) was “bind”, the “G651(OD)” value ([4]; 1 ng/mL free drug, FIG. 2) was 1.2 OD and the “G651(OD)” value ([4]; 5 ng/mL free drug, FIG. 2) was 0.88 OD. For the same compound, the “binding of antibody G651 raised against immunogen 8” value ([4]; in words) was “bind”.

For CN1C[C@H](C(=O)N[C@]2(C)O[C@@]3(O)[C@@H]4CCCN4C(=O)[C@H](Cc4ccccc4)N3C2=O)C=C2c3cccc4[nH]cc(c34)C[C@H]21 [ergotamine], the “competition for binding” value [1] is listed as “compete for binding”.

In the case of CC(C)C[C@H]1C(=O)N2CCC[C@H]2[C@]2(O)O[C@@](C)(NC(=O)[C@@H]3C=C4c5cccc6[nH]cc(c56)C[C@H]4N(C)C3)C(=O)N12 [ergosine], the “competition for binding” value [1] is given as “compete for binding”.

For C[C@@H](CO)NC(=O)[C@@H]1C=C2c3cccc4[nH]cc(c34)C[C@H]2N(C)C1 [ergonovine], the “competition for binding” value [1] is listed as “compete for binding”.
